These results are taken from patent publication US10703748B2, “Diazanaphthalen-3-yl carboxamides and preparation and use thereof” (Samumed, LLC, priority 2017, dated 2020).

Bounds are passed on as bounds.

One experiment concerns the target DYRK1A kinase (Homo sapiens, UniProt Q13627). The experiment in a line: DYRK1A kinase activity (Ser/Thr 18 peptide Z-lyte FRET assay).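 Also: kinase activity read as coumarin/fluorescein emission ratio after development step, with unphosphorylated and phosphorylated peptide forms setting 0% and 100% controls, values from dose-response curves.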 The class given is biochemical. Particulars: recombinant DYRK1A, 30 μM ATP, one hour at room temperature.
For another experiment, the target named is GSK3β kinase (Homo sapiens, UniProt P49841). The experiment can be described thus: GSK3β kinase activity (Ser/Thr 09 peptide Z-lyte FRET assay). Type of experiment: biochemical. Particulars: recombinant kinase, 46 μM ATP, one hour at room temperature; read-out: EC50.
In experiment [1] the test system is SW480 colon carcinoma cells. The experiment in a line: Cell viability assay (CellTiter-Glo). Particulars: Homo sapiens; for EC50: SW480, 96 h; for inhibition at 10 µM: SW480, read-out: percent inhibition at 10 μM. In general terms: Cellular ATP, detected with luciferase, serves as a proxy for viable cell number.
The subject of experiment [2] is Wnt-responsive Sp5-Luc reporter in SW480 colon carcinoma cells. The experiment can be described thus: Screening assay for Wnt activity (Sp5-Luc reporter gene assay). As to conditions: Homo sapiens; for EC50: SW480; for inhibition at 10 µM: SW480, read-out: percent inhibition at 10 μM. (In general: A reporter such as luciferase makes a cellular process visible.)
The next experiment concerns IL-6. The experiment can be described thus: IL-6 inhibition in LPS-stimulated human peripheral blood mononuclear cells (HTRF). Particulars: Homo sapiens, PBMC; for EC50: 22 h; for inhibition at 10 µM: read-out: percentage in parentheses after EC50 >10. On the technique in general: In TR-FRET formats the signal depends on donor and acceptor labels being close together.
Experiment [3] deals with α-smooth muscle actin (aSMA) positive LL29 cells. The experiment can be described thus: Inhibition of the fibrotic process: αSMA staining in TGF-β1 treated LL29 fibroblasts from IPF patients. As to conditions: Homo sapiens, Fibroblast; for EC50: 96 h; for inhibition at 10 µM: read-out: percentage in parentheses after EC50 >10.

Sequence of GSK3β kinase (P49841 whole entry): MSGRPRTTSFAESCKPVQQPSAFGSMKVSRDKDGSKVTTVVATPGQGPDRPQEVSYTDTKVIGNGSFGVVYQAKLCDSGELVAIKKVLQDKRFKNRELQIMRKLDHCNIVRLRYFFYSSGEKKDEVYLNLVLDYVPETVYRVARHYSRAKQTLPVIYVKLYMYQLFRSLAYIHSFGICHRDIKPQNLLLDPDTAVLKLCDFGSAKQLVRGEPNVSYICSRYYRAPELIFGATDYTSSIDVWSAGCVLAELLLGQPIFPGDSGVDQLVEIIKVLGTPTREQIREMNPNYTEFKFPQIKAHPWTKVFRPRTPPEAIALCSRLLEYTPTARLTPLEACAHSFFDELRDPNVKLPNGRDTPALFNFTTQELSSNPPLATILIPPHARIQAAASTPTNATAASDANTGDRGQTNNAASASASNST
Procedure for IL-6: Each compound was dissolved in DMSO (Catalog # D8418-100 ml, Sigma-Aldrich, St. Louis, Mo.) as a 10 mM stock and used to prepare compound source plates. […] After 22 hour incubation, a mixture of anti-IL6 XL665 and anti-IL-6 Cryptate diluted in reconstitution buffer (Catalog #62IL6PEC, Cisbio Inc., Bedford, Mass.) was added to each well. […] All samples were processed in duplicate. […] EC50 was determined using software generated by Dotmatics Limited (Windhill Bishops Stortford Herts, UK) using the Levenberg-Marquardt 4 parameter fitting procedure with finite different gradients.

With `COC1CCN(CC(=O)Nc2cc3cc(-c4cn(C)nn4)cnc3cn2)CC1` [Compound 3078, 2-(4-Methoxypiperidin-1-yl)-N-(3-(1-methyl-1H-1,2,3-triazol-4-yl)-1,7-naphthyridin-6-yl)acetamide], the 50% effective concentration (EC50) is 0.207 µM on DYRK1A kinase; 0.76 µM on GSK3β kinase; > 10 µM in experiment [1]; > 10 µM in experiment [2]; > 10 µM with IL-6; > 10 µM in experiment [3]. Further, the inhibition at 10 µM is 16% in experiment [1], 11.7% in experiment [2], 7.9% in the experiment with IL-6 and 41% in experiment [3].
Turning to `Cc1ncc(-c2ccc3cnc(NC(=O)C4CCN(CC(C)(F)F)CC4)nc3c2)o1` [Compound 1471, 1-(2,2-Difluoropropyl)-N-(7-(2-methyloxazol-5-yl)quinazolin-2-yl)piperidine-4-carboxamide], the EC50 at DYRK1A kinase was 0.046 µM; on GSK3β kinase it was 0.578 µM; in experiment [1], > 10 µM; in experiment [2], > 10 µM; in the experiment on IL-6 it was > 10 µM; in experiment [3], > 10 µM. Also, the inhibition at 10 µM in experiment [1] amounted to 11.3%; in experiment [2], 17.8%; in the experiment with IL-6 it was 1.8%; in experiment [3] it was 43.6%.
As for `Cn1cncc1-c1ccc2cnc(NC(=O)C3CCC(F)(F)CC3)nc2c1` [Compound 1306, 4,4-Difluoro-N-(7-(1-methyl-1H-imidazol-5-yl)quinazolin-2-yl)cyclohexane-1-carboxamide], the concentration giving a half-maximal response (EC50) on DYRK1A kinase is 0.391 µM; at GSK3β kinase it was 0.377 µM; in experiment [1] it was > 10 µM; in experiment [2], > 10 µM; with IL-6 it was 8.81 µM; in experiment [3], 1.8 µM. Moreover, the inhibition at 10 µM in experiment [1] is 43.7%; in experiment [2], 42.4%.
On to `CN1CCN(c2cc(C(=O)Nc3cc4cc(-c5cncc(N)c5)ncc4cn3)ccn2)CC1` [Compound 4432, N-(6-(5-Aminopyridin-3-yl)-2,7-naphthyridin-3-yl)-2-(4-methylpiperazin-1-yl)isonicotinamide], for which the EC50 was 0.002 µM on DYRK1A kinase; > 10 µM at GSK3β kinase; 2.03 µM in experiment [1]; 2 µM in experiment [2]; > 10 µM in the experiment with IL-6; 1.72 µM in experiment [3]. For the same compound, the inhibition at 10 µM in the experiment with IL-6 was 1.4%.
Regarding `CC(C)Oc1ccc(C(=O)Nc2cc3cc(-c4cnc5n4CCNC5)ncc3cn2)cc1` [Compound 4150, 4-Isopropoxy-N-(6-(5,6,7,8-tetrahydroimidazo[1,2-a]pyrazin-3-yl)-2,7-naphthyridin-3-yl)benzamide], the EC50 on DYRK1A kinase is 0.053 µM; at GSK3β kinase, 5.14 µM; in experiment [1], > 10 µM; in experiment [2], 2.85 µM; in the experiment with IL-6, > 10 µM; in experiment [3], 3.57 µM. Further, the inhibition at 10 µM in experiment [1] was 32.7%; in the experiment on IL-6, 4.6%.
As to `Cc1ncc(-c2ccc3cnc(NC(=O)C(C)N4CCCCC4)nc3c2)n1C` (stereo not drawn) [Compound 4576, N-(7-(1,2-Dimethyl-1H-imidazol-5-yl)quinazolin-2-yl)-2-(piperidin-1-yl) propanamide], the EC50 on DYRK1A kinase was 0.675 µM; at GSK3β kinase it was 0.346 µM; in experiment [1], > 10 µM; in experiment [2], > 10 µM; in the experiment on IL-6 it was > 10 µM; in experiment [3], > 10 µM. The inhibition at 10 µM in experiment [1] turned out to be 22.1%; in experiment [2], 35.3%; in the experiment on IL-6 it was 0%; in experiment [3], 38.3%.
On to `CN1CCCN(c2cc(C(=O)Nc3cc4cc(-c5cn(C)nn5)ncc4cn3)ccn2)CC1` [Compound 4006, 2-(4-Methyl-1,4-diazepan-1-yl)-N-(6-(1-methyl-1H-1,2,3-triazol-4-yl)-2,7-naphthyridin-3-yl)isonicotinamide], for which the EC50 is 0.056 µM at DYRK1A kinase; 1.47 µM on GSK3β kinase; 7.87 µM in experiment [1]; > 10 µM in experiment [2]; > 10 µM with IL-6; > 10 µM in experiment [3]. In addition, the inhibition at 10 µM stood at 37.7% in experiment [2], 8.9% with IL-6 and 5.2% in experiment [3].
Turning to `CN(C)CCNc1cc(C(=O)Nc2cc3cc(-c4cnn(C)c4)cnc3cn2)ccn1` [Compound 2884, 2-((2-(Dimethylamino)ethyl)amino)-N-(3-(1-methyl-1H-pyrazol-4-yl)-1,7-naphthyridin-6-yl)isonicotinamide], the EC50 is 0.049 µM at DYRK1A kinase; > 10 µM on GSK3β kinase; 3.88 µM in experiment [1]; > 10 µM in experiment [2]; > 10 µM with IL-6; 5.24 µM in experiment [3]. Also, the values for the inhibition at 10 µM (in experiment [2]; in the experiment on IL-6) were 44.1% and 9.4%, respectively.
As for `CC(C(=O)Nc1cc2cc(-c3cnn(C)c3)cnc2cn1)N1CCCCC1` (stereo not drawn) [Compound 2791, N-(3-(1-Methyl-1H-pyrazol-4-yl)-1,7-naphthyridin-6-yl)-2-(piperidin-1-yl) propanamide], the 50% effective concentration (EC50) at DYRK1A kinase was 0.513 µM; on GSK3β kinase, 3.47 µM; in experiment [1], > 10 µM; in experiment [2], > 10 µM; in the experiment on IL-6 it was > 10 µM; in experiment [3], 6.13 µM. In addition, the inhibition at 10 µM was 24.8% in experiment [1], 10.5% in experiment [2] and 5.3% with IL-6.
As to `CN1CCC(Oc2ccc(C(=O)Nc3ncc4ccc(-c5cnn(C)c5)cc4n3)cc2)CC1` [Compound 1052, N-(7-(1-Methyl-1H-pyrazol-4-yl)quinazolin-2-yl)-4-((1-methylpiperidin-4-yl)oxy)benzamide], the EC50 was 0.035 µM at DYRK1A kinase; 9.43 µM on GSK3β kinase; 5.37 µM in experiment [1]; 3.15 µM in experiment [2]; > 10 µM with IL-6; 8.74 µM in experiment [3]. Moreover, the inhibition at 10 µM in the experiment on IL-6 turned out to be 3.8%.
On to `Cc1nnc(-c2cnc3cnc(NC(=O)c4ccnc(N5CCN(C)CC5)c4)cc3c2)s1` [Compound 3470, N-(3-(5-Methyl-1,3,4-thiadiazol-2-yl)-1,7-naphthyridin-6-yl)-2-(4-methylpiperazin-1-yl)isonicotinamide], for which the concentration giving a half-maximal response (EC50) was 0.11 µM on DYRK1A kinase; > 10 µM on GSK3β kinase; 3.96 µM in experiment [1]; 5.48 µM in experiment [2]; > 10 µM in the experiment on IL-6; 3.23 µM in experiment [3]. Further, the inhibition at 10 µM in the experiment with IL-6 was 9.4%.
In the case of `CC(C)Oc1ccc(C(=O)Nc2cc3cc(-c4cnc5n4CCNC5)cnc3cn2)cc1` [Compound 3240, 4-Isopropoxy-N-(3-(5,6,7,8-tetrahydroimidazo[1,2-a]pyrazin-3-yl)-1,7-naphthyridin-6-yl)benzamide], the 50% effective concentration (EC50) is 1.05 µM at DYRK1A kinase; > 10 µM on GSK3β kinase; > 10 µM in experiment [1]; > 10 µM in experiment [2]; > 10 µM in the experiment on IL-6; > 10 µM in experiment [3]. Further, the inhibition at 10 µM in experiment [1] is 18.6%; in experiment [2], 0%; in the experiment with IL-6 it was 10.5%; in experiment [3], 15.9%.
As to `COC1CCN(CC(=O)Nc2cc3cc(-c4cn(C)nn4)ncc3cn2)CC1` [Compound 3985, 2-(4-Methoxypiperidin-1-yl)-N-(6-(1-methyl-1H-1,2,3-triazol-4-yl)-2,7-naphthyridin-3-yl)acetamide], the EC50 was 0.751 µM on DYRK1A kinase; 1.24 µM at GSK3β kinase; > 10 µM in experiment [1]; > 10 µM in experiment [2]; > 10 µM in the experiment on IL-6; 8.38 µM in experiment [3]. Also, the inhibition at 10 µM was found to be 34.9% in experiment [1], 49.8% in experiment [2] and 5.2% in the experiment with IL-6.
For `CC(C)Nc1cncc(-c2ccc3cnc(NC(=O)c4cn(C5CCNCC5)nn4)cc3n2)n1` [Compound 862, N-(2-(6-(isopropylamino)pyrazin-2-yl)-1,6-naphthyridin-7-yl)-1-(piperidin-4-yl)-1H-1,2,3-triazole-4-carboxamide], the concentration for a half-maximal effect (EC50) on DYRK1A kinase was 0.203 µM; on GSK3β kinase, > 10 µM; in experiment [1], 4.38 µM; in experiment [2], 3.97 µM; in the experiment with IL-6, > 10 µM; in experiment [3], 5.03 µM. Also, the inhibition at 10 µM in the experiment with IL-6 was 5.6%.
For the compound `CN1CCC(C(=O)Nc2cc3nc(-c4cnsc4)ccc3cn2)CC1` [Compound 692, N-(2-(Isothiazol-4-yl)-1,6-naphthyridin-7-yl)-1-methylpiperidine-4-carboxamide], the EC50 was 1.01 µM at DYRK1A kinase; > 10 µM on GSK3β kinase; > 10 µM in experiment [1]; > 10 µM in experiment [2]; 6.73 µM in the experiment with IL-6; > 10 µM in experiment [3]. Further, the inhibition at 10 µM in experiment [1] amounted to 28.7%; in experiment [2], 38.6%; in experiment [3] it was 3.8%.
On to `Cn1cc(-c2ccc3cnc(NC(=O)[C@H]4CCCN4)nc3c2)cn1` [Compound 969, (R)—N-(7-(1-Methyl-1H-pyrazol-4-yl)quinazolin-2-yl)pyrrolidine-2-carboxamide], for which the concentration giving a half-maximal response (EC50) (at DYRK1A kinase; on GSK3β kinase; in experiment [1]; in experiment [2]; in the experiment on IL-6; in experiment [3]) was > 10 µM throughout. The inhibition at 10 µM in experiment [1] was found to be 16.3%; in experiment [2] it was 4.2%; in the experiment with IL-6, 4.1%; in experiment [3] it was 40.2%.

The term EC50 denotes the concentration giving half of the maximal effect.
